Test results reported in ChEMBL document CHEMBL3232809, “Synthesis, antibiotic activity and structure-activity relationship study of some 3-enaminetetramic acids” (2014).

The molecules below were run on Escherichia coli (assay: Antimicrobial activity against Escherichia coli ATCC 25922).
Assay type: functional

| SMILES | MIC [µg/mL] |
| --- | --- |
| CCOC(=O)[C@]12CO[C@H](C(C)(C)C)N1C(=O)/C(=C(\C)NCc1ccc(C)o1)C2=O | > 32 |
| CCOC(=O)[C@]12CO[C@H](C(C)(C)C)N1C(=O)/C(=C(\C)N1CCN(C3CCCCC3)CC1)C2=O | > 32 |
| COCCOC(=O)[C@]12CO[C@H](C(C)(C)C)N1C(=O)/C(=C(\C)NCCOc1ccccc1)C2=O | > 32 |
| C/C(NCCOc1ccccc1)=C1/C(=O)[C@@H]2CO[C@@H](C(C)(C)C)N2C1=O | > 32 |
| C/C(NCCOc1ccccc1)=C1/C(=O)[C@@H]2CCCC(=O)N2C1=O | > 32 |

Each molecule was assayed on Enterococcus faecalis (assay: Antimicrobial activity against vancomycin-susceptible Enterococcus faecalis ATCC 29212).
Assay type: functional

| SMILES | MIC [µg/mL] |
| --- | --- |
| CCOC(=O)[C@]12CO[C@H](C(C)(C)C)N1C(=O)/C(=C(\C)NCc1ccc(C)o1)C2=O | > 32 |
| CCOC(=O)[C@]12CO[C@H](C(C)(C)C)N1C(=O)/C(=C(\C)N1CCN(C3CCCCC3)CC1)C2=O | > 32 |
| COCCOC(=O)[C@]12CO[C@H](C(C)(C)C)N1C(=O)/C(=C(\C)NCCOc1ccccc1)C2=O | > 32 |
| C/C(NCCOc1ccccc1)=C1/C(=O)[C@@H]2CO[C@@H](C(C)(C)C)N2C1=O | > 32 |
| C/C(NCCOc1ccccc1)=C1/C(=O)[C@@H]2CCCC(=O)N2C1=O | > 32 |

The molecules below were run on Streptococcus pneumoniae (assay: Antimicrobial activity against penicillin- and erythromycin-resistant Streptococcus pneumoniae).
Assay type: functional

| SMILES | MIC [µg/mL] |
| --- | --- |
| CCOC(=O)[C@]12CO[C@H](C(C)(C)C)N1C(=O)/C(=C(\C)NCc1ccc(C)o1)C2=O | > 32 |
| CCOC(=O)[C@]12CO[C@H](C(C)(C)C)N1C(=O)/C(=C(\C)N1CCN(C3CCCCC3)CC1)C2=O | > 32 |
| COCCOC(=O)[C@]12CO[C@H](C(C)(C)C)N1C(=O)/C(=C(\C)NCCOc1ccccc1)C2=O | > 32 |
| C/C(NCCOc1ccccc1)=C1/C(=O)[C@@H]2CO[C@@H](C(C)(C)C)N2C1=O | > 32 |
| C/C(NCCOc1ccccc1)=C1/C(=O)[C@@H]2CCCC(=O)N2C1=O | > 32 |

Each molecule was assayed on Streptococcus pneumoniae (assay: Antimicrobial activity against penicillin- and erythromycin-resistant Streptococcus pneumoniae in presence of 2.5% horse blood).
Assay type: functional

| SMILES | MIC [µg/mL] |
| --- | --- |
| CCOC(=O)[C@]12CO[C@H](C(C)(C)C)N1C(=O)/C(=C(\C)NCc1ccc(C)o1)C2=O | > 32 |
| CCOC(=O)[C@]12CO[C@H](C(C)(C)C)N1C(=O)/C(=C(\C)N1CCN(C3CCCCC3)CC1)C2=O | > 32 |
| COCCOC(=O)[C@]12CO[C@H](C(C)(C)C)N1C(=O)/C(=C(\C)NCCOc1ccccc1)C2=O | > 32 |
| C/C(NCCOc1ccccc1)=C1/C(=O)[C@@H]2CO[C@@H](C(C)(C)C)N2C1=O | > 32 |
| C/C(NCCOc1ccccc1)=C1/C(=O)[C@@H]2CCCC(=O)N2C1=O | > 32 |

The molecules below were run on Haemophilus influenzae (assay: Antimicrobial activity against Haemophilus influenzae ATCC 31517 MMSA).
Assay type: functional

| SMILES | MIC [µg/mL] |
| --- | --- |
| CCOC(=O)[C@]12CO[C@H](C(C)(C)C)N1C(=O)/C(=C(\C)NCc1ccc(C)o1)C2=O | > 32 |
| CCOC(=O)[C@]12CO[C@H](C(C)(C)C)N1C(=O)/C(=C(\C)N1CCN(C3CCCCC3)CC1)C2=O | > 32 |
| COCCOC(=O)[C@]12CO[C@H](C(C)(C)C)N1C(=O)/C(=C(\C)NCCOc1ccccc1)C2=O | > 32 |
| C/C(NCCOc1ccccc1)=C1/C(=O)[C@@H]2CO[C@@H](C(C)(C)C)N2C1=O | > 32 |
| C/C(NCCOc1ccccc1)=C1/C(=O)[C@@H]2CCCC(=O)N2C1=O | > 32 |

These molecules were tested on Staphylococcus aureus (assay: Antimicrobial activity against methicillin-sensitive Staphylococcus aureus ATCC 13709).
Assay type: functional

| SMILES | MIC [µg/mL] |
| --- | --- |
| CCOC(=O)[C@]12CO[C@H](C(C)(C)C)N1C(=O)/C(=C(\C)NCc1ccc(C)o1)C2=O | > 32 |
| CCOC(=O)[C@]12CO[C@H](C(C)(C)C)N1C(=O)/C(=C(\C)N1CCN(C3CCCCC3)CC1)C2=O | > 32 |
| COCCOC(=O)[C@]12CO[C@H](C(C)(C)C)N1C(=O)/C(=C(\C)NCCOc1ccccc1)C2=O | > 32 |
| C/C(NCCOc1ccccc1)=C1/C(=O)[C@@H]2CO[C@@H](C(C)(C)C)N2C1=O | > 32 |
| C/C(NCCOc1ccccc1)=C1/C(=O)[C@@H]2CCCC(=O)N2C1=O | > 32 |

These molecules were tested on Enterococcus faecium (assay: Antimicrobial activity against vancomycin-resistant Enterococcus faecium).
Assay type: functional

| SMILES | MIC [µg/mL] |
| --- | --- |
| CCOC(=O)[C@]12CO[C@H](C(C)(C)C)N1C(=O)/C(=C(\C)NCc1ccc(C)o1)C2=O | > 32 |
| CCOC(=O)[C@]12CO[C@H](C(C)(C)C)N1C(=O)/C(=C(\C)N1CCN(C3CCCCC3)CC1)C2=O | > 32 |
| COCCOC(=O)[C@]12CO[C@H](C(C)(C)C)N1C(=O)/C(=C(\C)NCCOc1ccccc1)C2=O | > 32 |
| C/C(NCCOc1ccccc1)=C1/C(=O)[C@@H]2CO[C@@H](C(C)(C)C)N2C1=O | > 32 |
| C/C(NCCOc1ccccc1)=C1/C(=O)[C@@H]2CCCC(=O)N2C1=O | > 32 |

These molecules were tested on Pseudomonas aeruginosa (assay: Antimicrobial activity against Pseudomonas aeruginosa ATCC 27853).
Assay type: functional

| SMILES | MIC [µg/mL] |
| --- | --- |
| CCOC(=O)[C@]12CO[C@H](C(C)(C)C)N1C(=O)/C(=C(\C)NCc1ccc(C)o1)C2=O | > 32 |
| CCOC(=O)[C@]12CO[C@H](C(C)(C)C)N1C(=O)/C(=C(\C)N1CCN(C3CCCCC3)CC1)C2=O | > 32 |
| COCCOC(=O)[C@]12CO[C@H](C(C)(C)C)N1C(=O)/C(=C(\C)NCCOc1ccccc1)C2=O | > 32 |
| C/C(NCCOc1ccccc1)=C1/C(=O)[C@@H]2CO[C@@H](C(C)(C)C)N2C1=O | > 32 |
| C/C(NCCOc1ccccc1)=C1/C(=O)[C@@H]2CCCC(=O)N2C1=O | > 32 |

These molecules were tested on Staphylococcus aureus (assay: Antimicrobial activity against Staphylococcus aureus Oxford).
Assay type: functional

| SMILES | MIC [µg/mL] |
| --- | --- |
| CCOC(=O)[C@]12CO[C@H](C(C)(C)C)N1C(=O)/C(=C(\C)NCc1ccc(C)o1)C2=O | > 32 |
| CCOC(=O)[C@]12CO[C@H](C(C)(C)C)N1C(=O)/C(=C(\C)N1CCN(C3CCCCC3)CC1)C2=O | > 32 |
| COCCOC(=O)[C@]12CO[C@H](C(C)(C)C)N1C(=O)/C(=C(\C)NCCOc1ccccc1)C2=O | > 32 |
| C/C(NCCOc1ccccc1)=C1/C(=O)[C@@H]2CO[C@@H](C(C)(C)C)N2C1=O | > 32 |
| C/C(NCCOc1ccccc1)=C1/C(=O)[C@@H]2CCCC(=O)N2C1=O | > 32 |

Each molecule was assayed on Haemophilus influenzae (assay: Antimicrobial activity against LS2 Efflux knock-out Haemophilus influenzae).
Assay type: functional

| SMILES | MIC [µg/mL] |
| --- | --- |
| CCOC(=O)[C@]12CO[C@H](C(C)(C)C)N1C(=O)/C(=C(\C)NCc1ccc(C)o1)C2=O | > 32 |
| CCOC(=O)[C@]12CO[C@H](C(C)(C)C)N1C(=O)/C(=C(\C)N1CCN(C3CCCCC3)CC1)C2=O | > 32 |
| COCCOC(=O)[C@]12CO[C@H](C(C)(C)C)N1C(=O)/C(=C(\C)NCCOc1ccccc1)C2=O | > 32 |
| C/C(NCCOc1ccccc1)=C1/C(=O)[C@@H]2CO[C@@H](C(C)(C)C)N2C1=O | > 32 |
| C/C(NCCOc1ccccc1)=C1/C(=O)[C@@H]2CCCC(=O)N2C1=O | > 32 |

Each molecule was assayed on Staphylococcus aureus (assay: Antimicrobial activity against methicillin-resistant Staphylococcus aureus).
Assay type: functional

| SMILES | MIC [µg/mL] |
| --- | --- |
| CCOC(=O)[C@]12CO[C@H](C(C)(C)C)N1C(=O)/C(=C(\C)NCc1ccc(C)o1)C2=O | > 32 |
| CCOC(=O)[C@]12CO[C@H](C(C)(C)C)N1C(=O)/C(=C(\C)N1CCN(C3CCCCC3)CC1)C2=O | > 32 |
| COCCOC(=O)[C@]12CO[C@H](C(C)(C)C)N1C(=O)/C(=C(\C)NCCOc1ccccc1)C2=O | > 32 |
| C/C(NCCOc1ccccc1)=C1/C(=O)[C@@H]2CO[C@@H](C(C)(C)C)N2C1=O | > 32 |
| C/C(NCCOc1ccccc1)=C1/C(=O)[C@@H]2CCCC(=O)N2C1=O | > 32 |

These molecules were tested on Escherichia coli (assay: Antimicrobial activity against Escherichia coli 50).
Assay type: functional

| SMILES | MIC [µg/mL] |
| --- | --- |
| CCOC(=O)[C@]12CO[C@H](C(C)(C)C)N1C(=O)/C(=C(\C)NCc1ccc(C)o1)C2=O | > 32 |
| CCOC(=O)[C@]12CO[C@H](C(C)(C)C)N1C(=O)/C(=C(\C)N1CCN(C3CCCCC3)CC1)C2=O | > 32 |
| COCCOC(=O)[C@]12CO[C@H](C(C)(C)C)N1C(=O)/C(=C(\C)NCCOc1ccccc1)C2=O | > 32 |
| C/C(NCCOc1ccccc1)=C1/C(=O)[C@@H]2CO[C@@H](C(C)(C)C)N2C1=O | > 32 |
| C/C(NCCOc1ccccc1)=C1/C(=O)[C@@H]2CCCC(=O)N2C1=O | > 32 |

What follows are molecules tested on Streptococcus pneumoniae (assay: Antimicrobial activity against erythromycin-susceptible Streptococcus pneumoniae ATCC 49619).
Assay type: functional

| SMILES | MIC [µg/mL] |
| --- | --- |
| CCOC(=O)[C@]12CO[C@H](C(C)(C)C)N1C(=O)/C(=C(\C)NCc1ccc(C)o1)C2=O | > 32 |
| CCOC(=O)[C@]12CO[C@H](C(C)(C)C)N1C(=O)/C(=C(\C)N1CCN(C3CCCCC3)CC1)C2=O | > 32 |
| COCCOC(=O)[C@]12CO[C@H](C(C)(C)C)N1C(=O)/C(=C(\C)NCCOc1ccccc1)C2=O | > 32 |
| C/C(NCCOc1ccccc1)=C1/C(=O)[C@@H]2CO[C@@H](C(C)(C)C)N2C1=O | > 32 |
| C/C(NCCOc1ccccc1)=C1/C(=O)[C@@H]2CCCC(=O)N2C1=O | > 32 |

The molecules below were run on Escherichia coli (assay: Antimicrobial activity against Escherichia coli 49).
Assay type: functional

| SMILES | MIC [µg/mL] |
| --- | --- |
| CCOC(=O)[C@]12CO[C@H](C(C)(C)C)N1C(=O)/C(=C(\C)NCc1ccc(C)o1)C2=O | > 32 |
| CCOC(=O)[C@]12CO[C@H](C(C)(C)C)N1C(=O)/C(=C(\C)N1CCN(C3CCCCC3)CC1)C2=O | > 32 |
| COCCOC(=O)[C@]12CO[C@H](C(C)(C)C)N1C(=O)/C(=C(\C)NCCOc1ccccc1)C2=O | > 32 |
| C/C(NCCOc1ccccc1)=C1/C(=O)[C@@H]2CO[C@@H](C(C)(C)C)N2C1=O | > 32 |
| C/C(NCCOc1ccccc1)=C1/C(=O)[C@@H]2CCCC(=O)N2C1=O | > 32 |

The molecules below were run on Staphylococcus aureus (assay: Antimicrobial activity against vancomycin-susceptible Staphylococcus aureus ATCC 25923).
Assay type: functional

| SMILES | MIC [µg/mL] |
| --- | --- |
| CCOC(=O)[C@]12CO[C@H](C(C)(C)C)N1C(=O)/C(=C(\C)NCc1ccc(C)o1)C2=O | > 32 |
| CCOC(=O)[C@]12CO[C@H](C(C)(C)C)N1C(=O)/C(=C(\C)N1CCN(C3CCCCC3)CC1)C2=O | > 32 |
| COCCOC(=O)[C@]12CO[C@H](C(C)(C)C)N1C(=O)/C(=C(\C)NCCOc1ccccc1)C2=O | > 32 |
| C/C(NCCOc1ccccc1)=C1/C(=O)[C@@H]2CO[C@@H](C(C)(C)C)N2C1=O | > 32 |
| C/C(NCCOc1ccccc1)=C1/C(=O)[C@@H]2CCCC(=O)N2C1=O | > 32 |
